Patent US20200397808A1, “TREATMENT OF STEROID-RESISTANT DISEASE USING AN ANTHOCYANIN AND A CORTICOSTEROID” (THE CLEVELAND CLINIC FOUNDATION, priority 2017, published 2020)

Tests used:
[1] = test system: HDM-induced neutrophilic airway inflammation; assay: HDM/CFA-induced acute neutrophilic steroid-resistant severe asthma model; type: in vivo, C57BL/6 mice; parameters: airway inflammation (BAL cell count, inflammatory gene expression in the lung): dose or concentration left out as unconfirmed
Protocol: FIGS. 1A and 1B provide graphs showing C3G attenuates neutrophilic airway inflammation in a HDM-induced acute asthma model. A. HDM/CFA-induced neutrophilic asthma in 8-week female C57BL/6 mice (n=8 per group). B. Shown are total and differential cell counts in BAL cell count. HDM, house dust mite. […] DEX and C3G were delivered to mice 24 h before HDM sensitization and 1 h before HDM challenge. Mice were sacrificed after HDM challenge. i.p., intraperitoneally; i.n. intranasally.
FIGS. 2A and 2B provide graphs showing Oral C3G attenuates neutrophilic airway inflammation in a HDM-induced acute asthma model. A. HDM/CFA-induced neutrophilic asthma in 8-week female C57BL/6 mice (n=5 per group). B. Shown are total and differential cell counts in BAL cell count. HDM, house dust mite. Treatment groups: Control (DMSO); Low DEX (0.3 mg/kg BW, i.p.); Low DEX+10 mg C3G (per mouse); Low DEX+20 mg C3G (per mouse); DEX and C3G were delivered to mice 24 h before HDM sensitization and 1 h before HDM challenge. Mice were sacrificed after HDM challenge.
C3G attenuates neutrophilic airway inflammation in a HDM-induced acute asthma model. House dust mite (HDM), a natural allergen to which asthmatics are often sensitized, can induce neutrophilic airway inflammation, which is often associated with steroid-resistant severe asthma. The inventors have established an HDM/CFA-induced neutrophilic severe asthma model. The ability of C3G in combination with low-dose DEX (low DEX) was evaluated in alleviating neutrophilic airway inflammation in a HDM-induced steroid-resistant severe asthma model. Eight-week WT C57BL/6 female mice were sensitized subcutaneously (s.c.) with HDM (100 μg per mouse) in Complete Freund's Adjuvant (CFA) on day 0 and subsequently challenged (i.n.) with HDM (100 μg per mouse) on day 14. BAL cell counting and tissue collection were performed after 24 h of last HDM challenge. […]

[2] = target: T1, IL-17A and IL-17ARA (IL-17A receptor subunit) interaction (Homo sapiens, UniProt Q96F46); assay: IL-17A binding to IL-17ARA inhibition; settings: read-out: IC50, inhibitory activity for IL-17A binding to IL-17ARA
T1 sequence (Q96F46 33-320 limits assumed): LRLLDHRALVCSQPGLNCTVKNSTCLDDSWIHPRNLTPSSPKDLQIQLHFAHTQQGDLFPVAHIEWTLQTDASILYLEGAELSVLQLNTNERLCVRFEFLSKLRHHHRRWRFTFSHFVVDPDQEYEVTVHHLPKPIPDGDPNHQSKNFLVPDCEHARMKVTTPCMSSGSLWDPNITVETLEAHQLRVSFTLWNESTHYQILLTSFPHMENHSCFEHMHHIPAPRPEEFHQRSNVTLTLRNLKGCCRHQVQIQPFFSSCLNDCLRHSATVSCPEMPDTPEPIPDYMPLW

[3] = test system: Th17-induced neutrophilic airway inflammation; assay: Th17 cell-mediated neutrophilic asthma model; type: in vivo, C57BL/6 mice; settings: C3G alone, 200 μg i.p./100 μg i.n per mouse
Protocol: FIGS. 3A and 3B provide graphs showing C3G attenuates neutrophilic airway inflammation in a Th17-induced asthma model. A. HDM/CFA-induced neutrophilic asthma in 8-week female C57BL/6 mice (n=5 per group). B. Shown are total and differential cell counts in BAL cell count. HDM, house dust mite. Treatment groups: Control (DMSO); Low DEX (0.3 mg/kg BW, i.p.); C3G (200 μg i.p./100 μg i.n per mouse); Low DEX/C3G. DEX and C3G were delivered to mice 1 h before HDM challenges. Mice were sacrificed after the last HDM challenge.
C3G attenuates neutrophilic airway inflammation in a Th17-induced asthma model. To further confirm the synergistic effect of DEX/C3G in IL-17A-driven asthma, the efficacy of C3G was tested in a TH17 cell-mediated neutrophilic asthma model (FIG. 3).

- IC50 [2]: 6.88 µM
SMILES: OC[C@H]1O[C@@H](Oc2cc3c(O)cc(O)cc3[o+]c2-c2ccc(O)c(O)c2)[C@H](O)[C@@H](O)[C@@H]1O [C3G, Cyanidin-3-glucoside]
- airway inflammation (BAL cell count, inflammatory gene expression in the lung) ([1]; C3G alone): reduced to some degree
- airway inflammation (BAL cell count) ([1]; oral C3G 20 mg/mouse in the presence of low DEX, versus 10 mg/mouse): did not improve the efficacy further
- airway inflammation (BAL cell count) ([1]; oral C3G by gavage 10 mg/mouse in the presence of low DEX): able to inhibit airway inflammation
- neutrophilic airway inflammation (BAL cell count) [3]: alleviated the inflammation dramatically
